Source: PubChem BioAssay (NCI)
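A five-concentration, 48-hour dose response in 96-well plates underlies each endpoint, interpolated linearly between surrounding concentrations. TGI is the concentration that stops growth completely.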

Assays:
Test in all cases: growth of human tumour cells (NCI), 48 h
KM12 colon = system: KM12 colon
OVCAR-8 ovarian = system: OVCAR-8 ovarian
SK-MEL-28 melanoma = system: SK-MEL-28 melanoma
EKVX NSCLC = system: EKVX NSCLC
M14 melanoma = system: M14 melanoma
MCF7 breast = system: MCF7 breast
ACHN renal = system: ACHN renal
MDA-MB-435 = system: MDA-MB-435
MOLT-4 leukemia = system: MOLT-4 leukemia
MDA-MB-231 breast = system: MDA-MB-231 breast
UO-31 renal = system: UO-31 renal
HCC-2998 colon = system: HCC-2998 colon
NCI-H226 lung = system: NCI-H226 lung
COLO 205 colon = system: COLO 205 colon
NCI-H460 lung = system: NCI-H460 lung
SR leukemia = system: SR leukemia

SMILES | TGI (KM12 colon) [µM] | TGI (OVCAR-8 ovarian) [µM] | TGI (SK-MEL-28 melanoma) [µM] | TGI (EKVX NSCLC) [µM] | TGI (M14 melanoma) [µM] | TGI (MCF7 breast) [µM] | TGI (ACHN renal) [µM] | TGI (MDA-MB-435) [µM] | TGI (MOLT-4 leukemia) [µM] | TGI (MDA-MB-231 breast) [µM] | TGI (UO-31 renal) [µM] | TGI (HCC-2998 colon) [µM] | TGI (NCI-H226 lung) [µM] | TGI (COLO 205 colon) [µM] | TGI (NCI-H460 lung) [µM] | TGI (SR leukemia) [µM]
N#Cc1nc(-c2ccccc2O)oc1N | > 100 | > 100 | > 100 | > 100 | > 100 | > 100 | > 100 | > 100 | > 100 | > 100 |  |  |  |  |  | 
OC1=CN=C(C2CC2)Oc2ccccc21 | > 100 | > 100 | > 100 | > 100 | > 100 |  | > 100 |  | > 100 |  | > 100 | > 100 | > 100 | > 100 | > 100 | 
c1ccc2c(c1)ncn2CCn1ccnc1 | > 100 | > 100 | > 100 | > 100 | > 100 | > 100 | > 100 | > 100 | > 100 | > 100 | > 100 | > 100 | > 100 | > 100 | > 100 | 
Cc1ccccc1C(=O)NC(O)(C(F)(F)F)C(F)(F)F | > 100 | > 100 | > 100 | > 100 | > 100 | > 100 | > 100 | > 100 | > 100 | > 100 | > 100 | > 100 | > 100 | > 100 | > 100 | 
Cc1ccc(O)c(-c2cc(-c3ccccc3)nc(/N=C\c3ccccc3)n2)c1 | > 100 | > 100 | > 100 | > 100 | > 100 | > 100 | 29.8 | > 100 | > 100 | > 100 | 13.5 |  | > 100 |  | > 100 | > 100
Cc1ccc(S(=O)(=O)C(C#N)c2nc3ccccc3nc2N2CCOCC2)cc1 (centres undefined) | 38.2 |  | 51.9 | > 100 | > 100 |  | > 100 |  | 58.7 |  | > 100 | 28.5 | > 100 | > 100 | 39.7 | > 100
C=CC(Br)(CBr)CCC(Br)C(C)(C)Br (centres undefined) | 22.3 | 30.1 | 29.8 |  | 28.3 |  | 25.3 |  | 35.8 |  | 28.8 |  | 32.8 | 28.8 | 23.4 | 21.5
c1ccc(N=C2C(=Nc3ccccc3)N(C3CCCCC3)C(=NC3CCCCC3)N2c2ccccc2)cc1 | > 100 | > 100 | > 100 | > 100 | > 100 | > 100 | > 100 |  | > 100 | > 100 | > 100 | > 100 | > 100 | > 100 | > 100 | > 100
Cc1no[n+]([O-])c1/C=N/NS(=O)(=O)c1ccccc1 | > 100 | > 100 | > 100 | > 100 | > 100 |  |  |  | > 100 |  | > 100 | > 100 |  | > 100 |  | > 100
c1ccc2c(c1)ccc1nc3ccccn3c12 | > 100 | > 100 | > 100 | > 100 | > 100 | > 100 | > 100 | > 100 | > 100 |  | > 100 | > 100 | > 100 | > 100 | > 100 | > 100
O=CN1CCN(C(=O)c2ccc(Cl)cc2)C1=S | 25.2 | 31.3 | 39.6 | 29 | 27.7 | 11 | 31 | 28 | 48.2 | 34.5 |  | 33.9 | 80 | 41.9 | 52 | 
O=C(OCC(Cl)(Cl)Cl)N1CC[C@@H](C2CCCCC2)C1 | 31.8 |  |  | 51.7 | 96.5 | 45.5 | 49.7 |  | 56.4 | > 100 | 40.2 | 36.7 |  | 56.3 | 43.8 | 69.4
CSC1=N/C(=C\c2ccccc2)C(=O)N1CN1CCOCC1 | > 100 | > 100 | > 100 | > 100 | > 100 | > 100 | > 100 | > 100 | > 100 | > 100 | > 100 |  | > 100 | > 100 |  | > 100
CCOC(=O)c1ncn2c1[nH]c(=O)c1ccccc12 | > 100 | > 100 | > 100 | > 100 | > 100 |  | > 100 |  | > 100 |  | > 100 |  | > 100 | > 100 | > 100 | > 100
CC(=O)C(CN(C)Cc1ccccc1)C(c1ccccc1)c1c(O)c2ccccc2oc1=O (centres undefined) | > 100 | > 100 | > 100 | > 100 | > 100 |  | > 100 |  | > 100 |  | 83.7 | > 100 | 99.5 | > 100 | > 100 | > 100
C[N+](C)(C)CC(=O)N/N=C/c1oc(-c2cccc([N+](=O)[O-])c2)c(-c2cccc([N+](=O)[O-])c2)c1[N+](=O)[O-] |  | > 100 | > 100 | > 100 | > 100 |  | > 100 |  |  |  | > 100 | > 100 |  | > 100 | > 100 | > 100
Cc1ccc(S(=O)(=O)N/N=C2/C3C(CC2(C)C)C2(C)CCCC3(C)C2O)cc1 (centres undefined) | 35.1 | > 100 | 40.4 | > 100 | 56.3 | 43.2 |  |  | 57.6 |  | > 100 |  | 35.3 | 31.8 | 37.7 | > 100
CCOC(=O)C1=COC(C)(C)CC1=O | > 100 | > 100 | > 100 | > 100 | > 100 | > 100 | > 100 | > 100 | > 100 | > 100 | > 100 |  |  | > 100 | > 100 | 

SMILES | TGI (KM12 colon) [µM] | TGI (OVCAR-8 ovarian) [µM] | TGI (SK-MEL-28 melanoma) [µM] | TGI (EKVX NSCLC) [µM] | TGI (M14 melanoma) [µM] | TGI (MCF7 breast) [µM] | TGI (ACHN renal) [µM] | TGI (MDA-MB-435) [µM] | TGI (MOLT-4 leukemia) [µM] | TGI (MDA-MB-231 breast) [µM] | TGI (UO-31 renal) [µM] | TGI (HCC-2998 colon) [µM] | TGI (NCI-H226 lung) [µM] | TGI (COLO 205 colon) [µM] | TGI (NCI-H460 lung) [µM] | TGI (SR leukemia) [µM]
CC12OC3(C(O)C1O)C(C(=O)O[C@H]3CO[Si](C)(C)C(C)(C)C)C2S(=O)(=O)c1ccccc1 (some centres undefined) | > 100 | > 100 | > 100 | > 100 | > 100 | > 100 | > 100 | > 100 | 55.7 | > 100 | > 100 |  | 58.3 |  | > 100 | 87.5
C[C@]12CC[C@H]3[C@@H](CC=C4C[C@@H](O)CC[C@@]43C)[C@@H]1C[C@H](N1CCOCC1)[C@@H]2O | > 100 | > 100 | > 100 | > 100 | > 100 | > 100 | > 100 | > 100 | > 100 | > 100 | > 100 | > 100 | > 100 | > 100 | > 100 | 
O=C1NC(=O)/C(=C/c2ccc(S(=O)(=O)N/N=C/c3ccccc3)cc2)N1 | > 100 | > 100 | > 100 | > 100 | > 100 | > 100 | > 100 | > 100 | > 100 | > 100 | > 100 | > 100 | > 100 | > 100 |  | 
CC1(C)CC(=O)C(CC2C(=O)c3ccccc3C2=O)C(=O)C1C(=O)C(=O)Nc1cccc2ccc(O)cc12 (centres undefined) | > 100 | > 100 | > 100 | > 100 | > 100 | > 100 | > 100 | > 100 | > 100 | > 100 | > 100 | > 100 | > 100 | > 100 | > 100 | 
c1ccc(-c2sc(-c3ccccc3)c3c2C2CCC3C2)cc1 | > 100 | > 100 | > 100 | > 100 | > 100 |  | > 100 | > 100 | > 100 | > 100 | 58.3 |  | 83.3 | 38.1 | 88.2 | 56.8
CN1C(=O)CN=C(c2ccccc2F)c2cc(N=C=S)ccc21 | > 100 | > 100 |  | > 100 | > 100 | > 100 | > 100 | > 100 |  | > 100 | > 100 | > 100 |  |  | > 100 | 
CCOC(=O)CCC(NC(=O)c1ccc(OCc2ccc3nc(OC)c(OC)nc3c2)cc1)C(=O)OCC (centres undefined) | > 100 | > 100 | > 100 |  | 96.8 | > 100 | > 100 | 91.1 | > 100 |  | > 100 | > 100 | > 100 | 32.8 | > 100 | > 100
CC1C2CC(CC2O)C1(C)C (centres undefined) | > 100 | > 100 | > 100 |  | > 100 |  | > 100 | > 100 | > 100 | > 100 | > 100 |  | > 100 | > 100 | > 100 | > 100
COc1ccc(N2C(=O)C(C#N)=C(SC)C(C#N)C2=O)cc1 (centres undefined) | > 100 | > 100 |  | > 100 | > 100 | > 100 | > 100 | > 100 | > 100 | > 100 |  | > 100 | > 100 | > 100 | > 100 | 
O=C(Nc1ccc(Cl)cc1Cl)c1cc2nc3ccccc3c(=O)n2c2ccccc12 | > 10 | > 10 | > 10 | > 10 | > 10 | > 10 |  | > 10 |  | > 10 | > 10 | > 10 |  |  | > 10 | 
N#Cc1c(N)nc2c(N=Nc3ccccc3)c(N)nn2c1Nc1ccccc1 | 18.1 | 14.2 | 24.2 | > 100 | 31.5 |  | 61.9 | 39.6 | 7.97 | 47.6 |  |  | 53.9 | 30.2 | 44.3 | 6.15
CC1(Br)S(=O)(=O)OCCOS1(=O)=O |  | > 100 | > 100 | > 100 | > 100 |  | > 100 |  | > 100 |  | > 100 | > 100 | > 100 | > 100 | > 100 | > 100
COc1ccccc1NC(=O)CC(=O)n1nc(-c2ccccc2)c(N=Nc2ccccc2[N+](=O)[O-])c1-c1ccccc1 | > 100 | > 100 | > 100 | > 100 | > 100 |  | > 100 |  | > 100 |  | > 100 | > 100 | > 100 | > 100 | > 100 | > 100
O=S(=O)(c1ccccc1)n1cnc(CCc2ccccc2)n1 | > 100 | > 100 | > 100 |  | > 100 |  | > 100 |  | > 100 |  | > 100 |  | > 100 | > 100 | > 100 | > 100
C=C(C)C1Cc2c(cc(OC)c3c(=O)c4ccccc4n(C)c23)O1 (centres undefined) | > 100 | > 100 | > 100 | > 100 | > 100 |  | > 100 |  |  |  | > 100 | > 100 | > 100 | > 100 | > 100 | > 100
COC(=O)NN/C=C(\C=Nc1ccccc1)[N+](=O)[O-] |  | > 100 | > 100 | > 100 | > 100 |  | > 100 |  | > 100 |  | > 100 | > 100 |  | > 100 | > 100 | > 100
CC1=C(S(=O)c2ccc(C)cc2)CCC2(CCCCO2)O1 (centres undefined) | > 100 | > 100 | > 100 | > 100 |  | > 100 | > 100 | > 100 | > 100 | > 100 | > 100 | > 100 | > 100 | > 100 | > 100 | 
